The term Ki denotes a dissociation constant, usually derived from enzyme kinetics or from competition with a known ligand. Read a low Ki as a stronger hold on the target.

From paper PMC4130243 (ACS Combinatorial Science, 2014) come the findings set out here.

The target of this experiment is T1, Mdm4 (Homo sapiens, UniProt O15151).
T1 sequence (O15151 1-490): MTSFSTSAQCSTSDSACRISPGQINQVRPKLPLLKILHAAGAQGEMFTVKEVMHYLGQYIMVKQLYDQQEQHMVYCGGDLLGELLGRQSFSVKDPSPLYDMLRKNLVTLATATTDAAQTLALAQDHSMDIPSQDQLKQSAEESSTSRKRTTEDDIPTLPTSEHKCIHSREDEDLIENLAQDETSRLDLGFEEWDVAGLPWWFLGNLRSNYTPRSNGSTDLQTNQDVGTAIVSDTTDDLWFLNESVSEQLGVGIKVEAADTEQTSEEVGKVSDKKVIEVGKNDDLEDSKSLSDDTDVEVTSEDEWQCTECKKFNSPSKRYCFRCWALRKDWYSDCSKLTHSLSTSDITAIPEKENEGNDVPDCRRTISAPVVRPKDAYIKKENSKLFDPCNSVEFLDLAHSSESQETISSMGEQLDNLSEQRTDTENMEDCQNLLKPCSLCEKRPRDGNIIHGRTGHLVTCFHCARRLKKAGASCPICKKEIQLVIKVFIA
The experiment is described as follows: fluorescence polarization assay, p53-Mdm4. The experiment is classed as binding. Particulars: FP, resynthesized and purified by flash chromatography.

In turn, `O=C(CN(Cc1ccc(Cl)cc1)C(=O)c1cc2ccccc2[nH]1)NC1CCCCC1` [Compound B1, N-(4-Chlorobenzyl)-N-(2-(cyclohexylamino)-2-oxoethyl)-1H-indole-2-carboxamide] registered a Ki of 5.5 µM.
